In US20050112573A1, “Method of detecting toxic substance” (priority 2001, published 2005):

Test system: yeast genes (level of expressed mRNA)
Assay: DNA chip analysis of expressed mRNA of yeast genes after 2 h culture with a toxic chemical substance
Type: cell-based, Saccharomyces cerevisiae S288C
Method in brief: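 S. cerevisiae S288C in YPD at 25 °C was exposed at log phase for 2 h to a growth-inhibiting, non-lethal concentration of the chemical. Poly(A) mRNA was reverse-transcribed with Cy3- or Cy5-dUTP and hybridized to a whole-genome yeast DNA chip (65 °C, >12 h). Values are fluorescence ratios versus untreated cells.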

sodium dodecylbenzosulfonate [(17)]
1.8: The level of expressed mRNA in the presence of chemical substance/absence: YJR044C (gene YJR044C)
0.8: The level of expressed mRNA in the presence of chemical substance/absence: YGL223C (gene YGL223C) | The level of expressed mRNA in the presence of chemical substance/absence: YGR156W (gene YGR156W) | The level of expressed mRNA in the presence of chemical substance/absence: YGR293C (gene YGR293C) | The level of expressed mRNA in the presence of chemical substance/absence: YHR083W (gene YHR083W) | The level of expressed mRNA in the presence of chemical substance/absence: YHR095W (gene YHR095W) | level of expressed mRNA in the presence of chemical substance/in its absence (gene YHR137W) | The level of expressed mRNA in the presence of chemical substance/absence: YHR180W (gene YHR180W) | level of expressed mRNA in the presence of chemical substance/in its absence (gene YLR180W) | The level of expressed mRNA in the presence of chemical substance/absence: YLR338W (gene YLR338W) | The level of expressed mRNA in the presence of chemical substance/absence: YLR392C (gene YLR392C) | The level of expressed mRNA in the presence of chemical substance/absence: YLR415C (gene YLR415C) | level of expressed mRNA in the presence of chemical substance/in its absence (gene YMR296C)
1.0: level of expressed mRNA in the presence of chemical substance/in its absence (gene YGL154C) | The level of expressed mRNA in the presence of chemical substance/absence: YGR139W (gene YGR139W) | level of expressed mRNA in the presence of chemical substance/in its absence (gene YHR037W) | The level of expressed mRNA in the presence of chemical substance/absence: YHR105W (gene YHR105W) | level of expressed mRNA in the presence of chemical substance/in its absence (gene YIL033C) | The level of expressed mRNA in the presence of chemical substance/absence: YJL017W (gene YJL017W) | level of expressed mRNA in the presence of chemical substance/in its absence (gene YLR273C) | The level of expressed mRNA in the presence of chemical substance/absence: YLR427W (gene YLR427W) | The level of expressed mRNA in the presence of chemical substance/absence: YMR114C (gene YMR114C) | The level of expressed mRNA in the presence of chemical substance/absence: YMR115W (gene YMR115W) | level of expressed mRNA in the presence of chemical substance/in its absence (gene YMR189W) | The level of expressed mRNA in the presence of chemical substance/absence: YNL026W (gene YNL026W)
1.5: The level of expressed mRNA in the presence of chemical substance/absence: YKL051W (gene YKL051W) | The level of expressed mRNA in the presence of chemical substance/absence: YML118W (gene YML118W)
1.1: level of expressed mRNA in the presence of chemical substance/in its absence (gene YGL209W) | The level of expressed mRNA in the presence of chemical substance/absence: YGR038W (gene YGR038W) | The level of expressed mRNA in the presence of chemical substance/absence: YGR198W (gene YGR198W) | The level of expressed mRNA in the presence of chemical substance/absence: YGR210C (gene YGR210C) | level of expressed mRNA in the presence of chemical substance/in its absence (gene YGR282C) | The level of expressed mRNA in the presence of chemical substance/absence: YHL006C (gene YHL006C) | level of expressed mRNA in the presence of chemical substance/in its absence (gene YIR035C) | The level of expressed mRNA in the presence of chemical substance/absence: YJL032W (gene YJL032W) | The level of expressed mRNA in the presence of chemical substance/absence: YKL059C (gene YKL059C) | The level of expressed mRNA in the presence of chemical substance/absence: YKL097C (gene YKL097C) | The level of expressed mRNA in the presence of chemical substance/absence: YLR097C (gene YLR097C) | The level of expressed mRNA in the presence of chemical substance/absence: YLR226W (gene YLR226W) | level of expressed mRNA in the presence of chemical substance/in its absence (gene YLR307W) | The level of expressed mRNA in the presence of chemical substance/absence: YML013W (gene YML013W) | level of expressed mRNA in the presence of chemical substance/in its absence (gene YML110C) | The level of expressed mRNA in the presence of chemical substance/absence: YMR258C (gene YMR258C)
1.7: level of expressed mRNA in the presence of chemical substance/in its absence (gene YJR159W)
0.9: level of expressed mRNA in the presence of chemical substance/in its absence (gene YGL126W) | level of expressed mRNA in the presence of chemical substance/in its absence (gene YGL134W) | The level of expressed mRNA in the presence of chemical substance/absence: YGR237C (gene YGR237C) | The level of expressed mRNA in the presence of chemical substance/absence: YHL037C (gene YHL037C) | level of expressed mRNA in the presence of chemical substance/in its absence (gene YHR092C) | The level of expressed mRNA in the presence of chemical substance/absence: YHR181W (gene YHR181W) | The level of expressed mRNA in the presence of chemical substance/absence: YJL049W (gene YJL049W) | level of expressed mRNA in the presence of chemical substance/in its absence (gene YJL196C) | level of expressed mRNA in the presence of chemical substance/in its absence (gene YKR039W) | The level of expressed mRNA in the presence of chemical substance/absence: YMR160W (gene YMR160W)
1.6: level of expressed mRNA in the presence of chemical substance/in its absence (gene YMR105C)
1.3: level of expressed mRNA in the presence of chemical substance/in its absence (gene YGL104C) | level of expressed mRNA in the presence of chemical substance/in its absence (gene YGR060W) | The level of expressed mRNA in the presence of chemical substance/absence: YGR250C (gene YGR250C) | The level of expressed mRNA in the presence of chemical substance/absence: YGR277C (gene YGR277C) | The level of expressed mRNA in the presence of chemical substance/absence: YHL021C (gene YHL021C) | The level of expressed mRNA in the presence of chemical substance/absence: YHR134W (gene YHR134W) | level of expressed mRNA in the presence of chemical substance/in its absence (gene YHR190W) | The level of expressed mRNA in the presence of chemical substance/absence: YJL037W (gene YJL037W) | level of expressed mRNA in the presence of chemical substance/in its absence (gene YJL132W) | level of expressed mRNA in the presence of chemical substance/in its absence (gene YJR148W) | The level of expressed mRNA in the presence of chemical substance/absence: YML041C (gene YML041C) | The level of expressed mRNA in the presence of chemical substance/absence: YMR068W (gene YMR068W) | level of expressed mRNA in the presence of chemical substance/in its absence (gene YMR271C) | level of expressed mRNA in the presence of chemical substance/in its absence (gene YMR272C) | level of expressed mRNA in the presence of chemical substance/in its absence (gene YNL012W)
1.9: level of expressed mRNA in the presence of chemical substance/in its absence (gene YLR142W)
1.2: The level of expressed mRNA in the presence of chemical substance/absence: YIL108W (gene YIL108W) | level of expressed mRNA in the presence of chemical substance/in its absence (gene YIL154C) | The level of expressed mRNA in the presence of chemical substance/absence: YJL097W (gene YJL097W) | level of expressed mRNA in the presence of chemical substance/in its absence (gene YJR142W) | The level of expressed mRNA in the presence of chemical substance/absence: YKL094W (gene YKL094W) | The level of expressed mRNA in the presence of chemical substance/absence: YML029W (gene YML029W) | The level of expressed mRNA in the presence of chemical substance/absence: YMR071C (gene YMR071C)
0.5: The level of expressed mRNA in the presence of chemical substance/absence: YGR211W (gene YGR211W)
1.4: The level of expressed mRNA in the presence of chemical substance/absence: YGL183C (gene YGL183C) | The level of expressed mRNA in the presence of chemical substance/absence: YIL165C (gene YIL165C) | level of expressed mRNA in the presence of chemical substance/in its absence (gene YJL088W) | level of expressed mRNA in the presence of chemical substance/in its absence (gene YKL067W) | The level of expressed mRNA in the presence of chemical substance/absence: YML079W (gene YML079W)
2.1: The level of expressed mRNA in the presence of chemical substance/absence: YGR243W (gene YGR243W)
0.7: level of expressed mRNA in the presence of chemical substance/in its absence (gene YGL253W) | The level of expressed mRNA in the presence of chemical substance/absence: YGR266W (gene YGR266W) | The level of expressed mRNA in the presence of chemical substance/absence: YIL127C (gene YIL127C) | level of expressed mRNA in the presence of chemical substance/in its absence (gene YIL167W) | The level of expressed mRNA in the presence of chemical substance/absence: YJR030C (gene YJR030C) | The level of expressed mRNA in the presence of chemical substance/absence: YKL090W (gene YKL090W) | The level of expressed mRNA in the presence of chemical substance/absence: YKL100C (gene YKL100C) | The level of expressed mRNA in the presence of chemical substance/absence: YKR040C (gene YKR040C) | level of expressed mRNA in the presence of chemical substance/in its absence (gene YLR300W) | The level of expressed mRNA in the presence of chemical substance/absence: YLR339C (gene YLR339C)
